Experimental data taken from ChEMBL document CHEMBL1147600, “Synthesis of 5'-C-methyl-1',3'-dioxolan-4'-yl nucleosides” (Bioorg Med Chem Lett, 2004).
Activity calls are given as the source filed them. The calls are words filed in the database; no cut-off is given here.

Legend:
Hepatitis C virus [1] = assay: Compound was evaluated against hepatitis C virus; IA means inactive; assay type: functional, organism-based; conditions: Hepacivirus hominis
Hepatitis B virus [2] = assay: Compound was evaluated against hepatitis B virus; IA means inactive; assay type: functional, organism-based
HepG2 = assay: Toxicity against human hepatoma HepG2 cells was determined up to 100 uM concentration; NA means Not Active; assay type: cell-based
Huh-7 = assay: Toxicity against human Huh7 cells was determined up to 100 uM concentration; NA means Not Active; assay type: cell-based
[3] = Toxicity against human lymphocytes was determined up to 100 uM concentration; NA means Not Active
Hepatitis C virus [4] = assay: Activity of compound against hepatitis C virus was determined; IA means inactive; assay type: functional, organism-based; conditions: Hepacivirus hominis
Hepatitis B virus [5] = assay: Activity of compound against hepatitis B virus was determined; IA means inactive; assay type: functional, organism-based

Row | SMILES | Activity (Hepatitis C virus [1]) | Activity (Hepatitis B virus [2]) | Toxicity (HepG2) | Toxicity (Huh-7) | Toxicity [3] | Activity (Hepatitis C virus [4]) | Activity (Hepatitis B virus [5])
1 | C[C@H]1O[C@@H](CO)O[C@H]1n1cc(F)c(N)nc1=O | inactive | inactive | Not Active | Not Active | Not Active | – | –
2 | C[C@H]1O[C@@H](COC(=O)c2ccccc2)O[C@@H]1n1cc(F)c(N)nc1=O | – | – | Not Active | Not Active | Not Active | inactive | inactive
3 | C[C@@H]1OC(CO)OC1n1cc(F)c(N)nc1=O (stereo not given in full) | inactive | inactive | Not Active | Not Active | Not Active | – | –
4 | C[C@H]1O[C@@H](COC(=O)c2ccccc2)O[C@H]1n1cc(F)c(N)nc1=O | inactive | inactive | Not Active | Not Active | Not Active | – | –
5 | C[C@H]1O[C@@H](CO)O[C@@H]1n1cc(F)c(N)nc1=O | inactive | inactive | Not Active | Not Active | Not Active | – | –
